From patent publication US10611771B2, “Pyrazolo [3,4-d] pyrimidine derivative” (WEST CHINA HOSPITAL, SICHUAN UNIVERSITY, priority 2016, dated 2020)
Values joined by “and” are separate entries in the source; they are usually repeats but may differ in a detail not shown here. Identical values can stand only once.

What was measured:
H1299 cells = experiment: MTT detection method, inhibitory effect against H1299 cells; format: cell-based
Text: (§1) MTT detection method was used, and MTT is a yellow compound and a dye accepting hydrogen ions, and can be used as the respiratory chain in mitochondria of viable cells. Under the action of succinate dehydrogenase and cytochrome C, the tetrazolium ring broke to form blue formanzan crystal, and the formation amount of formanzan crystal was only directly proportional to the viable counts. The formanzan crystal formed by reduction can dissolve in dimethyl sulfoxide (DMSO), and the optical density (OD) value can be determined at 490 nm using ELISA, to reflect the viable counts.
(§2) • Lung cancer cell lines: A549 and H1299. • Experimental materials: lung cancer cell lines, instruments and tools for cell culture, MTT, the compound mother liquid (10 mmol/L), and the positive control drug Src inhibitor pp1. 1. Specific Method • (3-1) Cell lines A549 and H1299 were recovered, and when the cells were in good conditions, namely cells grew to about 80% after one passage (i.e. the logarithmic growth phase), the cells were planked (96-well plate). • (3-2) Firstly, cells were collected, and the concentration of cell suspension was adjusted with counting chamber. Cells were seeded in 96-well plate at 1000˜10000 cells/well, and the detailed cell numbers in each well were dependent on the growth rate of different cells and the action time of drugs. A549 cells were seeded at 5000 cells, while H1299 cells were also seeded at 5000 cells, 200 μl for each well (100 μl cell suspension+100 μl drug dilution at different concentration gradient). The edge wells (36) were added 200 μl culture media (for prevention of edge effect). • (3-3) After planking and adding drugs, the plate was treated at 24 h, 48 h, and 72 h, and then for coloration, each well was added 200 μl culture media containing 20 μl MTT solution (5 mg/mL). The plate was continually cultured for 1˜4 hours, the incubation was stopped, and the culture supernatant fluid in each well was carefully absorbed. For suspension cells, the culture supernatant fluid in each well need be centrifuged before drawing. 150 μl DMSO was added to each well, and the plate was shaken on a shaking table for 15˜20 min, to allow the crystals to be completely dissolved. • (3-4) Colorimetry: The colorimetry was performed by ELISA, and the optical absorption value of each well was tested at a wavelength of 490 nm or 570 nm, and the result was recorded. • (3-5) Calculation Inhibition ratio=(the control−the drug)/the control×100% • IC50 (50% inhibitory concentration) can be calculated by spass software based on the inhibitory ratio at different concentration. II. Experimental Results • A549 cells were treated at 4 h, 24 h, 48 h, 72 h, and the drug dose was divided into the light concentration group (10 μm, 25 μm, 40 μm) and the high concentration group (50 μm, 80 μm, 100 μm), that were seeded at 6000 cells/well and 5000 cells/well, respectively, to carry out the experiment.
H1299 cells were seeded at 5000 cells/well, and after treatment for 4 h, 24 h, 48 h, and 72 h, the results were shown in Tables 5-9 and FIGS. 5-8: […]

A549 cells = experiment: MTT detection method, inhibitory effect against A549 cells; format: cell-based
Text: as §1, §2

CCCCn1nc(-c2ccc(OCCOCCOCCOCCOS(=O)(=O)c3ccc(C)cc3)cc2)c2c(N)ncnc21 [Compound 2, 2-(2-(2-(2-(4-(4-amino-1-n-butyl-1H-pyrazolo[3,4-d]pyrimidin-3-)phenoxy)ethoxy)ethoxy)ethoxy)ethyl 4-methylbenzenesulfonic Acid]
The inhibitory ratio (%) for three parallel assays (H1299 cells; 4 h, 10 μm): 9% and 12% and 2% | The mean inhibitory ratio (%) (H1299 cells; 4 h, 10 μm): 7% | The inhibitory ratio (%) for three parallel assays (H1299 cells; 4 h, 25 μm): 12% and 15% | The mean inhibitory ratio (%) (H1299 cells; 4 h, 25 μm): 13% | The inhibitory ratio (%) for three parallel assays (H1299 cells; 4 h, 40 μm): 16% and 17% | The mean inhibitory ratio (%) (H1299 cells; 4 h, 40 μm): 16% | The inhibitory ratio (%) for three parallel assays (H1299 cells; 4 h, 50 μm): 14% and 13% | The mean inhibitory ratio (%) (H1299 cells; 4 h, 50 μm): 14% | The inhibitory ratio (%) for three parallel assays (H1299 cells; 4 h, 80 μm): 11% and 10% | The mean inhibitory ratio (%) (H1299 cells; 4 h, 80 μm): 11% | The inhibitory ratio (%) for three parallel assays (H1299 cells; 4 h, 100 μm): 13% and 17% and 12% | The mean inhibitory ratio (%) (H1299 cells; 4 h, 100 μm): 14% | The inhibitory ratio (%) for three parallel assays (H1299 cells; 24 h, 10 μm): 10% and 9% and 13% | The mean inhibitory ratio (%) (H1299 cells; 24 h, 10 μm): 11% | The inhibitory ratio (%) for three parallel assays (H1299 cells; 24 h, 25 μm): 26% and 23% and 25% | The mean inhibitory ratio (%) (H1299 cells; 24 h, 25 μm): 25% | The inhibitory ratio (%) for three parallel assays (H1299 cells; 24 h, 40 μm): 36% and 35% and 37% | The mean inhibitory ratio (%) (H1299 cells; 24 h, 40 μm): 36% | The inhibitory ratio (%) for three parallel assays (H1299 cells; 24 h, 50 μm): 44% and 45% and 41% | The mean inhibitory ratio (%) (H1299 cells; 24 h, 50 μm): 43% | The inhibitory ratio (%) for three parallel assays (H1299 cells; 24 h, 80 μm): 42% and 41% | The mean inhibitory ratio (%) (H1299 cells; 24 h, 80 μm): 42% | The inhibitory ratio (%) for three parallel assays (H1299 cells; 24 h, 100 μm): 40% | The mean inhibitory ratio (%) (H1299 cells; 24 h, 100 μm): 40% | The inhibitory ratio (%) for three parallel assays (H1299 cells; 48 h, 10 μm): 16% and 20% and 21% | The mean inhibitory ratio (%) (H1299 cells; 48 h, 10 μm): 19% | The inhibitory ratio (%) for three parallel assays (H1299 cells; 48 h, 25 μm): 37% and 36% | The mean inhibitory ratio (%) (H1299 cells; 48 h, 25 μm): 37% | The inhibitory ratio (%) for three parallel assays (H1299 cells; 48 h, 40 μm): 57% | The mean inhibitory ratio (%) (H1299 cells; 48 h, 40 μm): 57% | The inhibitory ratio (%) for three parallel assays (H1299 cells; 48 h, 50 μm): 61% | The mean inhibitory ratio (%) (H1299 cells; 48 h, 50 μm): 61% | The inhibitory ratio (%) for three parallel assays (H1299 cells; 48 h, 80 μm): 64% and 63% and 62% | The mean inhibitory ratio (%) (H1299 cells; 48 h, 80 μm): 63% | The inhibitory ratio (%) for three parallel assays (H1299 cells; 48 h, 100 μm): 65% and 64% and 63% | The mean inhibitory ratio (%) (H1299 cells; 48 h, 100 μm): 64% | The inhibitory ratio (%) for three parallel assays (H1299 cells; 72 h, 10 μm): 28% and 24% and 27% | The mean inhibitory ratio (%) (H1299 cells; 72 h, 10 μm): 26% | The inhibitory ratio (%) for three parallel assays (H1299 cells; 72 h, 25 μm): 44% and 43% and 42% | The mean inhibitory ratio (%) (H1299 cells; 72 h, 25 μm): 43% | The inhibitory ratio (%) for three parallel assays (H1299 cells; 72 h, 40 μm): 65% and 64% | The mean inhibitory ratio (%) (H1299 cells; 72 h, 40 μm): 65% | The inhibitory ratio (%) for three parallel assays (H1299 cells; 72 h, 50 μm): 73% and 74% | The mean inhibitory ratio (%) (H1299 cells; 72 h, 50 μm): 74% | The inhibitory ratio (%) for three parallel assays (H1299 cells; 72 h, 80 μm): 80% and 78% | The mean inhibitory ratio (%) (H1299 cells; 72 h, 80 μm): 80% | The inhibitory ratio (%) for three parallel assays (H1299 cells; 72 h, 100 μm): 84% and 83% and 81% | The mean inhibitory ratio (%) (H1299 cells; 72 h, 100 μm): 83% | The inhibitory ratio (%) for three parallel assays (A549 cells; 4 h, 10 μm): 25.00% and 30.31% and 29.06% | The mean inhibitory ratio (%) (A549 cells; 4 h, 10 μm): 28.13% | The inhibitory ratio (%) for three parallel assays (A549 cells; 4 h, 25 μm): 14.38% and 17.19% and 13.44% | The mean inhibitory ratio (%) (A549 cells; 4 h, 25 μm): 15.00% | The mean inhibitory ratio (%) (A549 cells; 4 h, 40 μm): 14.17% | The inhibitory ratio (%) for three parallel assays (A549 cells; 4 h, 50 μm): 34.57% | The mean inhibitory ratio (%) (A549 cells; 4 h, 50 μm): 34.57% | The inhibitory ratio (%) for three parallel assays (A549 cells; 4 h, 80 μm): 34.86% and 36.86% and 35.14% | The mean inhibitory ratio (%) (A549 cells; 4 h, 80 μm): 35.62% | The inhibitory ratio (%) for three parallel assays (A549 cells; 4 h, 100 μm): 39.43% and 38.29% and 35.71% | The mean inhibitory ratio (%) (A549 cells; 4 h, 100 μm): 37.81% | The inhibitory ratio (%) for three parallel assays (A549 cells; 24 h, 10 μm): 16.09% and 20.22% and 12.83% | The mean inhibitory ratio (%) (A549 cells; 24 h, 10 μm): 16.38% | The inhibitory ratio (%) for three parallel assays (A549 cells; 24 h, 25 μm): 20.43% and 18.48% and 18.70% | The mean inhibitory ratio (%) (A549 cells; 24 h, 25 μm): 19.20% | The inhibitory ratio (%) for three parallel assays (A549 cells; 24 h, 40 μm): 18.48% and 24.35% and 23.91% | The mean inhibitory ratio (%) (A549 cells; 24 h, 40 μm): 22.25% | The inhibitory ratio (%) for three parallel assays (A549 cells; 24 h, 50 μm): 71.46% and 71.25% and 71.04% | The mean inhibitory ratio (%) (A549 cells; 24 h, 50 μm): 71.25% | The inhibitory ratio (%) for three parallel assays (A549 cells; 24 h, 80 μm): 75.63% and 75.83% and 74.79% | The mean inhibitory ratio (%) (A549 cells; 24 h, 80 μm): 75.42% | The inhibitory ratio (%) for three parallel assays (A549 cells; 24 h, 100 μm): 73.75% and 75.83% and 74.58% | The mean inhibitory ratio (%) (A549 cells; 24 h, 100 μm): 74.72% | The inhibitory ratio (%) for three parallel assays (A549 cells; 48 h, 10 μm): 24.84% and 31.41% and 29.22% | The mean inhibitory ratio (%) (A549 cells; 48 h, 10 μm): 28.49% | The inhibitory ratio (%) for three parallel assays (A549 cells; 48 h, 25 μm): 32.66% and 36.72% and 31.56% | The mean inhibitory ratio (%) (A549 cells; 48 h, 25 μm): 33.65% | The inhibitory ratio (%) for three parallel assays (A549 cells; 48 h, 40 μm): 47.97% and 47.66% and 49.06% | The mean inhibitory ratio (%) (A549 cells; 48 h, 40 μm): 48.23% | The inhibitory ratio (%) for three parallel assays (A549 cells; 48 h, 50 μm): 82.83% and 81.50% and 80.33% | The mean inhibitory ratio (%) (A549 cells; 48 h, 50 μm): 81.56% | The inhibitory ratio (%) for three parallel assays (A549 cells; 48 h, 80 μm): 82.67% and 83.00% and 82.83% | The mean inhibitory ratio (%) (A549 cells; 48 h, 80 μm): 82.83% | The inhibitory ratio (%) for three parallel assays (A549 cells; 48 h, 100 μm): 83.17% and 83.00% and 82.83% | The mean inhibitory ratio (%) (A549 cells; 48 h, 100 μm): 83.00% | The inhibitory ratio (%) for three parallel assays (A549 cells; 72 h, 10 μm): 30.00% and 29.46% | The mean inhibitory ratio (%) (A549 cells; 72 h, 10 μm): 29.64% | The inhibitory ratio (%) for three parallel assays (A549 cells; 72 h, 25 μm): 48.74% and 47.21% and 50.00% | The mean inhibitory ratio (%) (A549 cells; 72 h, 25 μm): 48.65% | The inhibitory ratio (%) for three parallel assays (A549 cells; 72 h, 40 μm): 68.92% and 70.36% and 70.63% | The mean inhibitory ratio (%) (A549 cells; 72 h, 40 μm): 69.97% | The inhibitory ratio (%) for three parallel assays (A549 cells; 72 h, 50 μm): 88.11% and 87.97% and 88.38% | The mean inhibitory ratio (%) (A549 cells; 72 h, 50 μm): 88.15% | The inhibitory ratio (%) for three parallel assays (A549 cells; 72 h, 80 μm): 88.51% and 88.38% | The mean inhibitory ratio (%) (A549 cells; 72 h, 80 μm): 88.47% | The inhibitory ratio (%) for three parallel assays (A549 cells; 72 h, 100 μm): 88.38% and 88.65% and 88.51% | The mean inhibitory ratio (%) (A549 cells; 72 h, 100 μm): 88.51%
